Reference: patent publication US8030043B2, “β-galactoside-α2,3-sialyltransferase, a gene encoding thereof, and a method for producing thereof” (Japan Tobacco Inc., priority 2005, dated 2011)

What was measured:
[1] = system: ISH467-N2C0 recombinant β-galactoside-α2,3-sialyltransferase; assay: Acceptor substrate specificity of recombinant β-galactoside-α2,3-sialyltransferase (mono-, di-, trisaccharides); assay type: biochemical, Photobacterium phosphoreum
From the text: (§1) Cell homogenates prepared from E. coli cells introduced with the third clone of ISH467-N2C0, the first clone of ISH224-N1C0 and the first clone of FAJ-N1C0 were each purified by ion exchange chromatography and hydroxyapatite chromatography to give an electrophoretically single band. The thus purified β-galactoside-α2,3-sialyltransferases were used in the following experiment in order to examine the presence or absence of sialyltransferase activity toward various monosaccharides, disaccharides and trisaccharides.
(§2) A reaction solution (24 μl) was prepared to contain CMP-^14C-NeuAc-containing CMP-NeuAc as a glycosyl donor substrate ([…], final concentration in the reaction solution: […]), any of various glycosyl acceptor substrates dissolved in 20 mM cacodylate buffer (pH 5.0) (1 μmol, final concentration in the reaction solution: 42 mM), sialyltransferase (in an amount as indicated in the footnotes of the tables below) and NaCl (final concentration in the reaction solution: 500 mM), and reacted under conditions as indicated in the footnotes of the tables below. The monosaccharides used as glycosyl acceptor substrates were the following 10 types: methyl-α-D-galactopyranoside (Gal-α-OMe), methyl-(β-D-galactopyranoside (Gal-β-OMe), methyl-α-D-glucopyranoside (Glc-α-OMe), methyl-β-D-glucopyranoside (Glc-β-OMe), methyl-α-D-mannopyranoside (Man-α-OMe), methyl-β-D-mannopyranoside (Man-β-OMe), methyl-α-D-fucopyranoside (Fuc-α-OMe), methyl-β-D-fucopyranoside (Fuc-β-OMe), N-acetylgalactosamine (GalNAc), and N-acetylglucosamine ([…]). The disaccharides used were the following 5 types: lactose (Gal-β1,4-Glc), N-acetyllactosamine (Gal-β1,4-GlcNAc), methyl-β-D-galactopyranosyl-β1,3-N-acetylglucosaminide (Gal-β1,3-GlcNAc-β-OMe), methyl-α-D-galactopyranosyl-α1,3-galactopyranoside (Gal-α-1,3-Gal-α-OMe), and methyl-β-D-galactopyranosyl-β1,3-galactopyranoside (Gal-β1,3-Gal-β-OMe). The trisaccharide used was 2′-fucosyllactose (Fuc-α1,2-Galβ1,4-Glc). It should be noted that the final concentration was set to 8.4 mM for the sugar chains shown in Table 18, i.e., methyl-α-D-galactopyranosyl-α1,3-galactopyranoside (Gal-α1,3-Gal-α-OMe), methyl-β-D-galactopyranosyl-β1,3-galactopyranoside (Gal-β1,3-Gal-β-OMe) and 2′-fucosyllactose (Fuc-α1,2-Gal-β1,4-Glc).
(§3) After completion of the enzymatic reaction, 1.98 ml of 5 mM phosphate buffer (pH 6.8) was added to the reaction solution to stop the enzymatic reaction. Then, the enzymatic reaction solution was diluted with 5 mM phosphate buffer (pH 6.8) and applied in a volume of 2 ml to a AG1−×2 Resin (PO4^3− form, 0.2×2 cm) column. This column was prepared as follows: AG1-x 2 Resin (OH^− form, BIO-RAD) was suspended in 1 M phosphate buffer (pH 6.8), and after 30 minutes, the resin was washed with distilled water and then suspended in distilled water. The eluate (0 to 2 ml) from this column was measured for its radioactivity. The eluate from this column contains the unreacted glycosyl acceptor substrate and the ^14C-NeuAc (N-acetylneuraminic acid)-bound reaction product which was generated by the reaction, but unreacted CMP-14C-NeuAc is still retained on the column. Thus, the radioactivity of ^14C from each sialic acid-containing sugar chain generated as a result of the enzymatic reaction arises exclusively from the reaction product, so that the radioactivity of this fraction can be used to calculate the enzyme activity.
(§4) In the manner described above, the radioactivity of NeuAc transferred to each glycosyl acceptor substrate was measured to calculate the amount of transferred sialic acid.

[2] = system: α2,3-sialyltransferase derived from strain JT-ISH-467; assay: Sialic acid transfer to monosaccharides and disaccharides by partially purified α2,3-sialyltransferase (CMP-14C-NeuAc donor, radioactivity of column eluate); assay type: biochemical, Photobacterium phosphoreum; conditions: 25° C., 4 hours, acceptor 10 μmol (200 mM), CMP-14C-NeuAc 400 nmol, sialyltransferase 0.13 mU, NaCl 500 mM
Description: A cell homogenate prepared from the strain JT-ISH-467 was partially purified by ion exchange chromatography, hydroxyapatite chromatography, and gel filtration chromatography. The thus partially purified α2,3-sialyltransferase was used in the following experiment in order to confirm the transfer of sialic acid to various monosaccharides and disaccharides.
The enzymatic reaction was carried out at 25° C. for 4 hours in a reaction solution (24 μl) prepared to contain CMP-^14C-NeuAc as a glycosyl donor substrate (400 nmol (15600 cpm), final concentration in the reaction solution: 16.6 mM), any of various glycosyl acceptor substrates (10 μmol, final concentration in the reaction solution: 200 mM), sialyltransferase (0.13 mU) and NaCl (final concentration in the reaction solution: 500 mM). The monosaccharides and disaccharides used as glycosyl acceptor substrates were the following 6 substances: methyl-α-D-galactopyranoside (Gal-α-OMe), methyl-β-D-galactopyranoside (Gal-β-OMe), N-acetylgalactosamine (GalNAc), lactose (Gal-β1,4-Glc), N-acetyllactosamine (Gal-β1,4-GlcNAc), and methyl-β-D-galactopyranosyl-β-1,3-N-acetylglucosaminide (Gal-β1,3-GlcNAc-β-OMe).
as §3, with “AG1-×2” for “AG1−×2”, “AG1-×2” for “AG1-x 2”, “CMP-^14C-NeuAc” for “CMP-14C-NeuAc”
as §4

[3] = system: FAJ-N1C0 recombinant β-galactoside-α2,3-sialyltransferase; assay: Acceptor substrate specificity of recombinant β-galactoside-α2,3-sialyltransferase (mono-, disaccharides); assay type: biochemical, Vibrio sp.; parameters: FAJ-N1C0 Sialyltransferase activity Relative activity (%): tested at 42 mM; conditions: 20° C., 14 hours; for FAJ-N1C0 Sialyltransferase activity: Table 16: 1 μmol acceptor, pH 5.0, about 2.5 mU enzyme; for FAJ-N1C0 Sialyltransferase activity Relative activity (%): Table 16: activity toward lactose set to 100
From the text: as §1, §2, §3, §4

[4] = system: ISH224-N1C0 recombinant β-galactoside-α2,3-sialyltransferase; assay: Acceptor substrate specificity of recombinant β-galactoside-α2,3-sialyltransferase (mono-, di-, trisaccharides); assay type: biochemical, Photobacterium sp.
From the text: as §1, §2, §3, §4

[5] = Table 16: 1 μmol acceptor, pH 5.0, about 2.5 mU enzyme, 20° C., 14 hours
[6] = Table 16: activity toward lactose set to 100, 20° C., 14 hours
[7] = Table 17: 1 μmol acceptor, pH 5.0, 2.3 mU per reaction, 30° C., 0.5 minutes or 2 minutes
[8] = Table 17: activity toward lactose set to 100, 30° C., 0.5 minutes or 2 minutes
[9] = Table 17: 1 μmol acceptor, pH 5.0, 1.0 mU per reaction, 30° C., 0.5 minutes or 2 minutes
[10] = Table 18: activity toward lactose set to 100, 0.2 μmol acceptor, 30° C., 2 minutes

| Structure (SMILES) | ISH467-N2C0 Sialyltransferase activity [1, 5] [nmol/min] | ISH467-N2C0 Sialyltransferase activity Relative activity (%) [1, 6] [%] | ISH467-N2C0 Sialyltransferase activity [1, 7] [nmol/min] | ISH467-N2C0 Sialyltransferase activity Relative activity (%) [1, 8] [%] | Amount of transferred sialic acid [2] | FAJ-N1C0 Sialyltransferase activity [3] [nmol/min] | FAJ-N1C0 Sialyltransferase activity Relative activity (%) [3] [%] | ISH224-N1C0 Sialyltransferase activity [4, 5] [nmol/min] | ISH224-N1C0 Sialyltransferase activity Relative activity (%) [4, 6] [%] | ISH224-N1C0 Sialyltransferase activity [4, 9] [nmol/min] | ISH224-N1C0 Sialyltransferase activity Relative activity (%) [4, 8] [%] | Amount of transferred sialic acid ([2]; listed as Gal-β1,4-GlcNAc) [nmol] | ISH467-N2C0 Sialyltransferase activity ([1]; Table 18: 0.2 μmol acceptor (8.4 mM), pH 5.0, 23 mU per reaction, 30° C., 2 minutes) [nmol/min] | ISH467-N2C0 Sialyltransferase activity Relative activity (%) [1, 10] [%] | ISH224-N1C0 Sialyltransferase activity ([4]; Table 18: 0.2 μmol acceptor (8.4 mM), pH 5.0, 1.0 mU per reaction, 30° C., 2 minutes) [nmol/min] | ISH224-N1C0 Sialyltransferase activity Relative activity (%) [4, 10] [%] |
| --- | --- | --- | --- | --- | --- | --- | --- | --- | --- | --- | --- | --- | --- | --- | --- | --- |
| CO[C@@H]1O[C@H](CO)[C@@H](O)[C@H](O[C@@H]2O[C@H](CO)[C@H](O)[C@H](O)[C@H]2O)[C@H]1NC(C)=O [methyl-β-D-galactopyranosyl-β1,3-N-acetylglucosaminide] | 9.6 | 122 | 2.95 | 129 | 71.1 nmol | 9.4 | 124 | 9.4 | 111 | 1.98 | 192 |  |  |  |  |  |
| CO[C@H]1O[C@H](CO)[C@H](O)[C@H](O)[C@H]1O [Methylαgalactopyranoside, methyl-α-D-galactopyranoside] | 10.5 | 134 | 10.38 | 452 | 60.0 nmol | 10.3 | 135 | 9.5 | 113 | 8.49 | 823 |  |  |  |  |  |
| CC(=O)N[C@H]1C(O)O[C@H](CO)[C@@H](O[C@@H]2O[C@H](CO)[C@H](O)[C@H](O)[C@H]2O)[C@@H]1O (stereo partly drawn) [Lactosamine, N-acetyllactosamine] | 9.2 | 118 | 2.36 | 103 | highest in amount of transferred sialic acid | 9.6 | 127 | 9.7 | 115 | 0.99 | 96 | 74.9 |  |  |  |  |
| OC[C@H]1O[C@@H](O[C@H]2[C@H](O)[C@@H](O)C(O)O[C@@H]2CO)[C@H](O)[C@@H](O)[C@H]1O (stereo partly drawn) [Lactose, lactose] | 7.8 | 100 | 2.29 | 100 | 57.9 nmol | 7.6 | 100 | 8.4 | 100 | 1.03 | 100 |  | 1.64 | 100 | 1.51 | 100 |
| CC(=O)N[C@H]1C(O)O[C@H](CO)[C@H](O)[C@@H]1O (stereo partly drawn) [N-Acetylgalactosamine, N-acetylgalactosamine] | 5.4 | 69 | 0.99 | 43 | 37.8 nmol | 4.4 | 58 | 5.8 | 69 | 0.78 | 76 |  |  |  |  |  |
